Source: patent publication US7732470B2, “Compositions and methods for the treatment of renal and cardiovascular disease” (Medical College of Georgia Research Institute, priority 2006, dated 2010)

Tested on: spontaneously hypertensive rats (SHR)
Experiment: Blood pressure in spontaneously hypertensive rats
Format: in vivo, rat
Method: As the 11-nonyloxy-undec-8(Z)-enoic acid derivatives lowered blood pressure in angiontensin hypertension, additional experiments were performed to determine if one of the derivatives could lower blood pressure in another hypertension model system. Male spontaneously hypertensive rats (SHRs) were maintained on a 12-hour light-dark cycle and allowed access to food and water ad libitum. These studies complied with the protocols for animal use outlined by the American Physiological Society and were approved by the institutional animal care and use committee.
Rats from 6 to 12 weeks of age were treated with 11-nonyloxy-undec-8(Z)-enoic acid derivative (TVR-I-276-21)( 2 mg/d i.p.) or vehicle for 8 days. Blood pressure was measured at Day 0, Day 4, and Day 8.
The blood pressure lowering effects of these analogs were analyzed in an established model of hepertension, the spontaneously hypertensive rats (SHR) using telemetry. […] As discussed in the previous example, additional derivatives with improved solubility and resistance to auto-oxidation and metabolism by sEH were designed using the pharmacophoric moiety of EET.
Amidation of the carboxylic group with aspartic acid produced another EET analog 32 (SA-III-161-32). […] Amidation of the carboxylic group with lysine amino acid produced another EET analog 34 (SA-III-172-26).

`CCCCCCCCCOCC/C=C\CCCCCCC(=O)O` [11,12-ether EET-8-ZE, 11-nonyloxy-undec-8(Z)-enoic acid, reference compound] was tested. Which blood pressure lowering did it give?
Its blood pressure lowering is “failed to lower blood pressure”.

Which “blood pressure lowering effect” value (injected at 3 mg/day for 5 days) does the source give for `CCCCCCCCCOCC/C=C\CCCCCCC(=O)NC(CC(=O)O)C(=O)O` (centres unmarked) [SA-III-161-32, (Z)-2-(11-(nonyloxy)undec-8-enamido) succinic acid] here?
Its value is “demonstrated a blood pressure lowering effect”.

What about the “MAP Δ change at day 2 of injection” value (injected at 3 mg/day for 5 days, telemetry) of the same compound?
The value was −8±1.3 mmHg.

With `CCCCCCCCCOCC/C=C\CCCCCCC(=O)NC(CCCCN)C(=O)O` (centres unmarked) [SA-III-172-26, (Z)-6-amino-2-(11-(nonyloxy)undec-8-enamido)hexanoic acid] as the compound, how does the “blood pressure lowering effect” value (injected at 2 mg/day) read?
The value was “minimal blood pressure lowering effect”.

For `CCCCCCCCCOCC/C=C\CCCCCCC(=O)OCCOCCOCCO` [TVR-I-276-21, (Z)-2-(2-(2-hydroxyethoxy)ethoxy)ethyl 11-(nonyloxy)undec-8-enoate], which blood pressure (2 mg/d i.p. for 8 days, measured Day 0, 4, 8, versus vehicle) is on record?
The blood pressure was “did not increase to the same extent as those that received the vehicle treatment”.
